How the values were obtained:
[1] = target: T1, human coagulation factor Xa (Homo sapiens, UniProt P00742); assay: Chromogenic assay for F Xa inhibition; type: biochemical; conditions: chromogenic substrate S-2765 200 μM; Ki from IC50 by Cheng Prusoff formula, mean of duplicates
T1 construct: purchased Haemochrom Diag; HFXa
Protocol: (§1) The ability of the compounds of the formulae I or Ia to inhibit thrombin or factor Xa or other enzymes like factor VIIa, plasmin, or trypsin can be assessed by determining the concentration of the compound of the formulae I or Ia that inhibits enzyme activity by 50%, i.e. the 1050 value, which was related to the inhibition constant Ki. Purified enzymes were used in chromogenic assays. The concentration of inhibitor that causes a 50% decrease in the rate of substrate hydrolysis was determined by linear regression after plotting the relative rates of hydrolysis (compared to the uninhibited control) versus the log of the concentration of the compound of formulae I or Ia. For calculating the inhibition constant Ki, the 1050 value was corrected for competition with substrate using the formula Ki=IC50/{1+(substrate concentration/Km)} wherein Km is the Michaelis-Menten constant (Chen and Prusoff, Biochem. Pharmacol. 22 (1973) 3099-3108). Measurement of F Xa and Thrombin Inhibition:
(§2) The claimed substances were tested for F Xa and thrombin inhibition with a chromogenic assay. 8 μl DMSO solution of the compound, 72 μL assay buffer (50 mM TRIS, 150 mM NaCl, 0.1% BSA, pH 7.8) and 20 μL enzyme (human coagulation factor Xa: Haemochrom Diag. Cat. Nr. HFXa, final concentration […]; human thrombin Behring: LOT.-No. 881001) were mixed and incubated for 15 minutes at room temperature in a 96 well microtiter plate. The enzyme reaction was started with 100 μL substrate (F Xa: S-2765, Chromogenix/Haemochrom Cat. Nr. 41249; thrombin: S-2366, Chromogenix/Haemochrom Cat. Nr. 41222 both in a final concentration of 200 μM). The time course of the reaction was monitored at 405 nm in a microtiter plate reader (SpectraMax plus 384; Molecular Devices Inc.) for 15 minutes.
(§3) The Ki was calculated from the mean of duplicates from a dilution series of the compound by the reader according to the Cheng Prusoff formula Ki=IC50/(1+(S/Km).
(§4) The results (inhibition constants Ki Thrombin and FXa in mikro M [μM]) for inhibition of thrombin and factor Xa are shown in Table 1.

human thrombin = target: T2, human thrombin (Homo sapiens, UniProt P00734); assay: Chromogenic assay for thrombin inhibition; type: biochemical; conditions: chromogenic substrate S-2366 200 μM; Ki from IC50 by Cheng Prusoff formula, mean of duplicates
T2 construct: conversion of prothrombin to thrombin, the final enzyme in the coagulation cascade; purchased Behring LOT.-No. 881001 (a lot number; no catalogue number given)
Protocol: as §1, §2, §3, §4

T1 sequence (P00742 235-488 limits assumed): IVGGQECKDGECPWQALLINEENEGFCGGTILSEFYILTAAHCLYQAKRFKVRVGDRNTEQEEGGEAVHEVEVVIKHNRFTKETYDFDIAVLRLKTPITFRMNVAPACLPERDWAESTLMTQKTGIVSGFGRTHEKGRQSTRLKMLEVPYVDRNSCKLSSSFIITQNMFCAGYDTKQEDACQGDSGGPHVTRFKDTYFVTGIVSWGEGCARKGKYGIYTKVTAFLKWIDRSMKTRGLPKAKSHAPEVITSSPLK
T1 sequence (P00742 41-179 limits assumed): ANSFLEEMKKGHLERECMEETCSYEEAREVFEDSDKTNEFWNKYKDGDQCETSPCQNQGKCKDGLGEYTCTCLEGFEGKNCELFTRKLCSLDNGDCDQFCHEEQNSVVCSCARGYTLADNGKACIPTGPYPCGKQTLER

| Structure (SMILES) | Ki [1] [nM] | Ki (human thrombin) [nM] |
| --- | --- | --- |
| CCc1c(N2CCOCC2=O)cccc1S(=O)(=O)N[C@@H](Cc1cc(-c2ccc(Cl)s2)on1)C(=O)N1CCCCCC1 [Example 1, N-{(S)-2-Azepan-1-yl-1-[5-(5-chloro-thiophen-2-yl)-isoxazol-3-ylmethyl]-2-oxo-ethyl}-2-ethyl-3-(3-oxo-morpholin-4-yl)-benzenesulfonamide] | 13 | 0.35 |
| O=C([C@H](Cc1cc(-c2ccc(Cl)s2)on1)NS(=O)(=O)c1cccc(N2CCOCC2=O)c1Cl)N1CCCCCC1 [Example 2, N-{(S)-2-Azepan-1-yl-1-[5-(5-chloro-thiophen-2-yl)-isoxazol-3-ylmethyl]-2-oxo-ethyl}-2-chloro-3-(3-oxo-morpholin-4-yl)-benzenesulfonamide] | 83 | 7 |
| COc1c(N2CCCCC2=O)cc(F)cc1S(=O)(=O)N[C@@H](Cc1cc(-c2ccc(Cl)s2)on1)C(=O)NCC1CC1 [Example 3, (S)-3-[5-(5-Chloro-thiophen-2-yl)-isoxazol-3-yl]-N-cyclopropylmethyl-2-[5-fluoro-2-methoxy-3-(2-oxo-piperidin-1-yl)-benzenesulfonylamino]-propionamide] | 904 | 268 |
| COc1c(N2CCCCC2=O)cc(F)cc1S(=O)(=O)N[C@@H](Cc1cc(-c2ccc(Cl)s2)on1)C(=O)N1CCN(C2CC2)CC1 [Example 4, N—[(S)-1-[5-(5-Chloro-thiophen-2-yl)-isoxazol-3-ylmethyl]-2-(4-cyclopropyl-piperazin-1-yl)-2-oxo-ethyl]-5-fluoro-2-methoxy-3-(2-oxo-piperidin-1-yl)-benzenesulfonamide trifluoro acetate] | 6 | 29 |
| O=C([C@H](Cc1cc(-c2ccc(Cl)s2)on1)NS(=O)(=O)c1cccc(N2CCCCC2=O)c1OC(F)F)N1CCN(C2CC2)CC1 [Example 5, N—[(S)-1-[5-(5-Chloro-thiophen-2-yl)-isoxazol-3-ylmethyl]-2-(4-cyclopropyl-piperazin-1-yl)-2-oxo-ethyl]-2-difluoromethoxy-3-(2-oxo-piperidin-1-yl)-benzenesulfonamide trifluoro acetate] | 33 | 94 |
| Cc1c(N2CCCC2=O)cccc1S(=O)(=O)N[C@@H](Cc1cc(-c2ccc(Cl)s2)on1)C(=O)N1CCN(CC(F)(F)F)CC1 [Example 6, N-{(S)-1-[5-(5-Chloro-thiophen-2-yl)-isoxazol-3-ylmethyl]-2-oxo-2-[4-(2,2,2-trifluoro-ethyl)-piperazin-1-yl]-ethyl}-2-methyl-3-(2-oxo-pyrrolidin-1-yl)-benzenesulfonamide trifluoro acetate] | 0.72 | 14 |
| Cc1c(N2CCCC2=O)cccc1S(=O)(=O)N[C@@H](Cc1cc(-c2ccc(Cl)s2)on1)C(=O)N1CCNC(C(F)(F)F)C1 (stereo partly drawn) [Example 7, N—[(S)-1-[5-(5-Chloro-thiophen-2-yl)-isoxazol-3-ylmethyl]-2-oxo-2-(3-trifluoromethyl-piperazin-1-yl)-ethyl]-2-methyl-3-(2-oxo-pyrrolidin-1-yl)-benzenesulfonamide trifluoro acetate] | 0.44 | 0.79 |

From patent publication US8835653B2, “Chlorothiophene-isoxazoles as inhibitors of coagulation factors Xa and thrombin” (Sanofi, priority 2008, dated 2014)
